# Experimental data from ChEMBL document CHEMBL4373704, “Mucosal Vaccination with a Self-Adjuvanted Lipopeptide Is Immunogenic and Protective against Mycobacterium tuberculosis” (J Med Chem, 2019).
# Calls of active or inactive are those of the source. The rule behind the calls is not given here.
# Key:
# Mus musculus [1] = species on record: Mus musculus; assay: Induction of antigen-specific immunogenicity in C57BL/6 mouse assessed as induction of pulmonary CD4+ T-lymphocyte responses by measuring lung ESAT6-specific CD4+ T-lymphocytes producing TNFalpha at 14.2 ug, in measured 3 weeks after the final vaccination by immunostaining and flow cytometry; assay type: functional, organism-based
# Mus musculus [2] = assay: Induction of antigen-specific immunogenicity in C57BL/6 mouse assessed as induction of pulmonary CD4+ T-lymphocyte responses by measuring lung ESAT6-specific CD4+ T-lymphocytes producing IL-2 at 56.8 ug, sc measured 3 weeks after the final vaccination by immunostaining and flow cytometry; assay type: functional, organism-based
# Mus musculus [3] = species on record: Mus musculus; assay: Induction of antigen-specific immunogenicity in C57BL/6 mouse assessed as induction of pulmonary CD4+ T-lymphocyte responses by measuring spleen ESAT6-specific CD4+ T-lymphocytes producing TNFalpha at 14.2 ug, in measured 3 weeks after the final vaccination by immunostaining and flow cytometry; assay type: functional, organism-based
# Mus musculus [4] = assay: Induction of antigen-specific immunogenicity in C57BL/6 mouse assessed as induction of pulmonary CD4+ T-lymphocyte responses by measuring lung ESAT6-specific CD4+ T-lymphocytes producing TNFalpha at 56.8 ug, sc measured 3 weeks after the final vaccination by immunostaining and flow cytometry; assay type: functional, organism-based
# Mus musculus [5] = assay: Induction of antigen-specific immunogenicity in C57BL/6 mouse assessed as induction of pulmonary CD4+ T-lymphocyte responses by measuring lung ESAT6-specific CD4+ T-lymphocytes producing IFNgamma at 56.8 ug, sc measured 3 weeks after the final vaccination by immunostaining and flow cytometry; assay type: functional, organism-based
# [6] = molecular target: Toll-like receptor 2 (Homo sapiens) (UniProt O60603); assay: Activation of YFP-tagged TLR2 (unknown origin) expressed in HEK293 cells assessed as induction of IL8 secretion at 33.5 ug/mL incubated for 16 to 18 hrs by ELISA; assay type: cell-based
# Chain of Toll-like receptor 2 (Homo sapiens) (O60603 whole entry): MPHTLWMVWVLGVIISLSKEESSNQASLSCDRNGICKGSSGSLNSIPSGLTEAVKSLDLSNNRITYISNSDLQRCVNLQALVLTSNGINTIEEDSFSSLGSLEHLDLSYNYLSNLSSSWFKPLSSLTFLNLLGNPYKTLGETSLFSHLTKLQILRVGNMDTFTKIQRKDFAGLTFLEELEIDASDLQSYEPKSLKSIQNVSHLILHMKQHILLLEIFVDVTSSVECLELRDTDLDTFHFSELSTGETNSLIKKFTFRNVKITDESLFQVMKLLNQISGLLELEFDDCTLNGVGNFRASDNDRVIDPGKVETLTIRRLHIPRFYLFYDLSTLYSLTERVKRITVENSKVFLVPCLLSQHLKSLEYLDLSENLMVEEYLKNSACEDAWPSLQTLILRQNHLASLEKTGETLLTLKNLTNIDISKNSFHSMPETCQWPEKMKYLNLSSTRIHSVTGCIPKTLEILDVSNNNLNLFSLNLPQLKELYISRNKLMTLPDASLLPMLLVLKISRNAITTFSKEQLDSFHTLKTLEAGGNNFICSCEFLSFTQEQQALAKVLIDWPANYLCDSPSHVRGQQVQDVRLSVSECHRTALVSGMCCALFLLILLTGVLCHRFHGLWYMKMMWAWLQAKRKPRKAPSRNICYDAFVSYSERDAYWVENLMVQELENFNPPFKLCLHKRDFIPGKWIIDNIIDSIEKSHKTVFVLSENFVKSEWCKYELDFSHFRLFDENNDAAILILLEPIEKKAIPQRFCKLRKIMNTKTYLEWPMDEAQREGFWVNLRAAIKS
# Mus musculus [7] = species on record: Mus musculus; assay: Induction of antigen-specific immunogenicity in C57BL/6 mouse assessed as induction of pulmonary CD4+ T-lymphocyte responses by measuring lung ESAT6-specific CD4+ T-lymphocytes producing IL-2 at 14.2 ug, in measured 3 weeks after the final vaccination by immunostaining and flow cytometry; assay type: functional, organism-based
# Mus musculus [8] = assay: Induction of antigen-specific immunogenicity in C57BL/6 mouse assessed as induction of pulmonary CD4+ T-lymphocyte responses by measuring spleen ESAT6-specific CD4+ T-lymphocytes producing TNFalpha at 56.8 ug, sc measured 3 weeks after the final vaccination by immunostaining and flow cytometry; assay type: functional, organism-based
# Mus musculus [9] = species on record: Mus musculus; assay: Induction of antigen-specific immunogenicity in C57BL/6 mouse assessed as induction of pulmonary CD4+ T-lymphocyte responses by measuring spleen ESAT6-specific CD4+ T-lymphocytes producing IL-17 at 14.2 ug, in measured 3 weeks after the final vaccination by immunostaining and flow cytometry; assay type: functional, organism-based
# Mus musculus [10] = assay: Induction of antigen-specific immunogenicity in C57BL/6 mouse assessed as induction of pulmonary CD4+ T-lymphocyte responses by measuring spleen ESAT6-specific CD4+ T-lymphocytes producing IL-17 at 56.8 ug, sc measured 3 weeks after the final vaccination by immunostaining and flow cytometry; assay type: functional, organism-based
# Mus musculus [11] = species on record: Mus musculus; assay: Induction of antigen-specific immunogenicity in C57BL/6 mouse assessed as induction of pulmonary CD4+ T-lymphocyte responses by measuring lung ESAT6-specific CD4+ T-lymphocytes producing IL-17 at 14.2 ug, in measured 3 weeks after the final vaccination by immunostaining and flow cytometry; assay type: functional, organism-based
# Mus musculus [12] = species on record: Mus musculus; assay: Induction of antigen-specific immunogenicity in C57BL/6 mouse assessed as induction of pulmonary CD4+ T-lymphocyte responses by measuring spleen ESAT6-specific CD4+ T-lymphocytes producing IFNgamma at 14.2 ug, in measured 3 weeks after the final vaccination by immunostaining and flow cytometry; assay type: functional, organism-based
# Mus musculus [13] = assay: Induction of antigen-specific immunogenicity in C57BL/6 mouse assessed as induction of pulmonary CD4+ T-lymphocyte responses by measuring spleen ESAT6-specific CD4+ T-lymphocytes producing IL-2 at 56.8 ug, sc measured 3 weeks after the final vaccination by immunostaining and flow cytometry; assay type: functional, organism-based
# Mus musculus [14] = assay: Induction of antigen-specific immunogenicity in C57BL/6 mouse assessed as induction of pulmonary CD4+ T-lymphocyte responses by measuring spleen ESAT6-specific CD4+ T-lymphocytes producing IFNgamma at 56.8 ug, sc measured 3 weeks after the final vaccination by immunostaining and flow cytometry; assay type: functional, organism-based
# Mus musculus [15] = species on record: Mus musculus; assay: Induction of antigen-specific immunogenicity in C57BL/6 mouse assessed as induction of pulmonary CD4+ T-lymphocyte responses by measuring lung ESAT6-specific CD4+ T-lymphocytes producing INFNgamma at 14.2 ug, in measured 3 weeks after the final vaccination by immunostaining and flow cytometry; assay type: functional, organism-based
# Mus musculus [16] = species on record: Mus musculus; assay: Induction of antigen-specific immunogenicity in C57BL/6 mouse assessed as induction of pulmonary CD4+ T-lymphocyte responses by measuring spleen ESAT6-specific CD4+ T-lymphocytes producing IL-2 at 14.2 ug, in measured 3 weeks after the final vaccination by immunostaining and flow cytometry; assay type: functional, organism-based
# Mus musculus [17] = assay: Induction of antigen-specific immunogenicity in C57BL/6 mouse assessed as induction of pulmonary CD4+ T-lymphocyte responses by measuring lung ESAT6-specific CD4+ T-lymphocytes producing IL-17 at 56.8 ug, sc measured 3 weeks after the final vaccination by immunostaining and flow cytometry; assay type: functional, organism-based
# Mus musculus [18] = assay: Induction of antigen-specific immunogenicity in C57BL/6 mouse assessed as induction of pulmonary CD4+ T-lymphocyte responses by measuring spleen ESAT6-specific CD8+ T-lymphocytes producing TNFalpha at 10 ug, sc measured 3 weeks after the final vaccination by immunostaining and flow cytometry; assay type: functional, organism-based
# Mus musculus [19] = assay: Induction of antigen-specific immunogenicity in C57BL/6 mouse assessed as induction of pulmonary CD4+ T-lymphocyte responses by measuring spleen ESAT6-specific CD8+ T-lymphocytes producing IFNgamma at 10 ug, sc measured 3 weeks after the final vaccination by immunostaining and flow cytometry; assay type: functional, organism-based
# [20] = molecular target: Toll-like receptor 2 (Homo sapiens) (UniProt O60603); assay: Activation of YFP-tagged TLR2 (unknown origin) expressed in HEK293 cells assessed as induction of IL8 secretion at 8 ug/mL incubated for 16 to 18 hrs by ELISA; assay type: cell-based
# Mus musculus [21] = species on record: Mus musculus; assay: Induction of antigen-specific immunogenicity in C57BL/6 mouse assessed as induction of pulmonary CD4+ T-lymphocyte responses by measuring lung ESAT6-specific CD8+ T-lymphocytes producing IL-2 at 10 ug, in measured 3 weeks after the final vaccination by immunostaining and flow cytometry; assay type: functional, organism-based
# Mus musculus [22] = species on record: Mus musculus; assay: Induction of antigen-specific immunogenicity in C57BL/6 mouse assessed as induction of pulmonary CD4+ T-lymphocyte responses by measuring lung ESAT6-specific CD8+ T-lymphocytes producing IFNgamma at 10 ug, in measured 3 weeks after the final vaccination by immunostaining and flow cytometry; assay type: functional, organism-based
# Mus musculus [23] = species on record: Mus musculus; assay: Induction of antigen-specific immunogenicity in C57BL/6 mouse assessed as induction of pulmonary CD4+ T-lymphocyte responses by measuring lung ESAT6-specific CD8+ T-lymphocytes producing IL-17 at 10 ug, in measured 3 weeks after the final vaccination by immunostaining and flow cytometry; assay type: functional, organism-based
# Mus musculus [24] = species on record: Mus musculus; assay: Induction of antigen-specific immunogenicity in C57BL/6 mouse assessed as induction of pulmonary CD4+ T-lymphocyte responses by measuring lung ESAT6-specific CD8+ T-lymphocytes producing TNFalpha at 10 ug, in measured 3 weeks after the final vaccination by immunostaining and flow cytometry; assay type: functional, organism-based
compound,measurement,setting,value
CCCCCCCCCCCCCCCC(=O)OC[C@H](CSC[C@H](N)C(=O)N[C@@H](CO)C(=O)N[C@@H](CCCCN)C(=O)N[C@@H](CCCCN)C(=O)N[C@@H](CCCCN)C(=O)N[C@@H](CCCCN)C(=O)NCCOCCOCC(=O)N[C@@H](CCSC)C(=O)N[C@H](C(=O)N[C@@H](CCC(=O)O)C(=O)N[C@@H](CCC(N)=O)C(=O)N[C@@H](CCC(N)=O)C(=O)N[C@@H](Cc1c[nH]c2ccccc12)C(=O)N[C@@H](CC(N)=O)C(=O)N[C@@H](Cc1ccccc1)C(=O)N[C@@H](C)C(=O)NCC(=O)N[C@H](C(=O)N[C@@H](CCC(=O)O)C(=O)N[C@@H](C)C(=O)N[C@@H](C)C(=O)N[C@@H](C)C(=O)N[C@@H](CO)C(=O)N[C@@H](C)C(=O)N[C@H](C(=O)N[C@@H](CCC(N)=O)C(=O)NCC(=O)N[C@@H](CCC(N)=O)C(=O)N[C@H](C(=O)N[C@@H](CCSC)C(=O)N[C@@H](Cc1ccc(O)cc1)C(=O)N[C@@H](CC(N)=O)C(=O)N[C@@H](Cc1ccc(O)cc1)C(=O)N1CCC[C@H]1C(=O)N[C@@H](C)C(=O)N[C@@H](CCSC)C(=O)O)[C@@H](C)CC)[C@@H](C)CC)[C@@H](C)CC)[C@@H](C)O)OC(=O)CCCCCCCCCCCCCCC,Activity,Mus musculus [1],Active
same,Activity,Mus musculus [2],inactive
same,Activity,Mus musculus [3],Active
same,Activity,Mus musculus [4],inactive
same,Activity,Mus musculus [5],inactive
same,Activity,[6],Active
same,Activity,Mus musculus [7],Active
same,Activity,Mus musculus [8],Active
same,Activity,Mus musculus [9],Active
same,Activity,Mus musculus [10],inactive
same,Activity,Mus musculus [11],Active
same,Activity,Mus musculus [12],Active
same,Activity,Mus musculus [13],Active
same,Activity,Mus musculus [14],inactive
same,Activity,Mus musculus [15],Active
same,Activity,Mus musculus [16],Active
same,Activity,Mus musculus [17],inactive
H-QIMYNYPAM-OH,Activity,Mus musculus [18],Active
same,Activity,Mus musculus [19],Active
same,Activity,[20],inactive
same,Activity,Mus musculus [21],inactive
same,Activity,Mus musculus [22],inactive
same,Activity,Mus musculus [23],inactive
same,Activity,Mus musculus [24],inactive
